{"source": "patent US9187472B2", "about": "(AbbVie Inc., priority 2012, dated 2015)", "key": {"[1]": {"system": "experimental autoimmune encephalomyelitis (EAE)", "conditions": "model of T-cell mediated autoimmune disorders, Bruzzone et al. 2009; cited from earlier work"}, "activated T cells": {"system": "activated T cells", "conditions": "Busso et al. 2008; cited from earlier work"}, "[2]": {"system": "collagen induced arthritis", "conditions": "Busso et al. 2008; cited from earlier work"}, "[3]": {"target": "NAMPT (human, recombinant, C-terminally His-tagged) (Homo sapiens, UniProt P43490)", "sequence (P43490 whole entry)": "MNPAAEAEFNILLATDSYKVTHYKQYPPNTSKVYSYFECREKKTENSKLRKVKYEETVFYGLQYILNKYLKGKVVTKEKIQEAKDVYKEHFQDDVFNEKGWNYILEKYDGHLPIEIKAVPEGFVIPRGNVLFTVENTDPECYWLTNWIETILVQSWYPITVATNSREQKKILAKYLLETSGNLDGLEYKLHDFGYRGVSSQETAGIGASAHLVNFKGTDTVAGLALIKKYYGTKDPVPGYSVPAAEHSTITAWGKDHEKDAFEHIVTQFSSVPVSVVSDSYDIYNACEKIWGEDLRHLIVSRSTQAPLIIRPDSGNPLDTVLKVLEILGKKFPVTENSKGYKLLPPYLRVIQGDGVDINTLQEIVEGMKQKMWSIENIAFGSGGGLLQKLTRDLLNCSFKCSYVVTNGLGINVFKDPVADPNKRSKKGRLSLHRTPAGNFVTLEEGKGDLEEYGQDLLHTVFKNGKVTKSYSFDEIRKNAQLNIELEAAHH", "experiment": "Time-Resolved Fluorescence Resonance Energy Transfer (TR-FRET) Binding Assay of NAMPT", "conditions": "without substrates; 6.8 nM NAMPT, 200 nM probe, 3 hours equilibration", "outline": "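Compounds, diluted in half-log steps, are mixed with enzyme (6.8 nM), fluorescent probe (200 nM) and Tb-anti-His antibody (1 nM) in pH 7.5 HEPES buffer containing 10 mM MgCl2 and 1 mM DTT. Plates equilibrate 3 h at room temperature; normalized FRET ratios are fitted by four-parameter logistic regression for IC50.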"}, "PC3 cells": {"system": "PC3 cells", "experiment": "NAMPT Cell Proliferation Assay", "format": "cell-based", "conditions": "Homo sapiens, PC-3, 120 h, 5 days incubation, cell viability by Cell Titer Glo", "outline": "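Following overnight attachment in RPMI with 10% heat-inactivated FBS, PC3 cells at 500 per well receive compounds spanning 10 μM down to 1×10^−5 μM. Growth is assessed by luminescent viability read after 5 days.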"}, "NAMPT": {"target": "NAMPT (Homo sapiens, UniProt P43490)", "sequence (P43490 whole entry)": "as above", "experiment": "TR-FRET Binding Assay of NAMPT with PRPP", "conditions": "with 200 μM PRPP and 2.5 mM ATP; 2 nM NAMPT, 2 nM probe, 16 hours equilibration", "outline": "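Compounds were mixed with 2 nM His-tagged NAMPT, 2 nM probe, 1 nM terbium anti-His antibody, 200 μM PRPP and 2.5 mM ATP in assay buffer with 2% DMSO, then left 16 hours to permit possible enzymatic processing of compounds before time-resolved FRET was measured.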"}}}
{"smiles": "O=C(/C=C/c1cccnc1)NCCCCC1CCN(C(=O)c2ccccc2)CC1", "note": "[FK866]", "values": [{"measurement": "manifestations of experimental autoimmune encephalomyelitis", "setting": "[1]", "result": "ameliorated the manifestations"}, {"measurement": "apoptosis of activated T cells", "setting": "activated T cells", "result": "induce apoptosis"}, {"measurement": "proliferation of activated T cells", "setting": "activated T cells", "result": "selectively block proliferation"}, {"measurement": "efficacy in animal models of arthritis", "setting": "[2]", "result": "efficacious"}]}
{"smiles": "O=C(NCc1ccn2ccnc2c1)c1ccc(-c2cnn(CC3CCC3)c2)s1", "note": "[Example 475, 5-[1-(cyclobutylmethyl)-1H-pyrazol-4-yl]-N-(imidazo[1,2-a]pyridin-7-ylmethyl)thiophene-2-carboxamide]", "values": [{"measurement": "IC50", "setting": "[3]", "result": 9.76, "unit": "nM"}, {"measurement": "IC50", "setting": "PC3 cells", "result": 6.92, "unit": "nM"}, {"measurement": "IC50", "setting": "NAMPT", "result": 0.169, "unit": "nM"}]}
{"smiles": "O=C(NCc1ccn2ccnc2c1)c1ccc(-c2cnn(CC3CCCO3)c2)s1", "note": "(stereo not shown) [Example 248, N-(imidazo[1,2-a]pyridin-7-ylmethyl)-5-[1-(tetrahydrofuran-2-ylmethyl)-1H-pyrazol-4-yl]thiophene-2-carboxamide]", "values": [{"measurement": "IC50", "setting": "[3]", "result": 65.8, "unit": "nM"}, {"measurement": "IC50", "setting": "PC3 cells", "result": 2.42, "unit": "nM"}, {"measurement": "IC50", "setting": "NAMPT", "result": 0.169, "unit": "nM"}]}
{"smiles": "O=C(NCc1ccn2ccnc2c1)c1ccc(C2CN(C(=O)CC3CCCC3)C2)cc1", "note": "[Example 629, 4-[1-(cyclopentylacetyl)azetidin-3-yl]-N-(imidazo[1,2-a]pyridin-7-ylmethyl)benzamide]", "values": [{"measurement": "IC50", "setting": "[3]", "result": 230, "unit": "nM"}, {"measurement": "IC50", "setting": "PC3 cells", "result": 65.2, "unit": "nM"}, {"measurement": "IC50", "setting": "NAMPT", "result": 0.643, "unit": "nM"}]}
{"smiles": "O=C(NCc1ccn2ccnc2c1)c1ccc(C2CCN(C(=O)c3cccc(C(F)(F)F)c3)CC2)cc1", "note": "[Example 702, N-(imidazo[1,2-a]pyridin-7-ylmethyl)-4-{1-[3-(trifluoromethyl)benzoyl]piperidin-4-yl}benzamide]", "values": [{"measurement": "IC50", "setting": "[3]", "result": 568, "unit": "nM"}, {"measurement": "IC50", "setting": "PC3 cells", "result": 88, "unit": "nM"}, {"measurement": "IC50", "setting": "NAMPT", "result": 1.29, "unit": "nM"}]}
{"smiles": "O=C(NCc1ccn2ccnc2c1)Nc1ccc(O[C@@H]2CCN(C(=O)C3CCOC3)C2)cc1", "note": "(stereo partly drawn) [Example 337, 1-(imidazo[1,2-a]pyridin-7-ylmethyl)-3-(4-{[(3R)-1-(tetrahydrofuran-3-ylcarbonyl)pyrrolidin-3-yl]oxy}phenyl)urea]", "values": [{"measurement": "IC50", "setting": "[3]", "result": 497, "unit": "nM"}, {"measurement": "IC50", "setting": "PC3 cells", "result": 533, "unit": "nM"}, {"measurement": "IC50", "setting": "NAMPT", "result": 0.205, "unit": "nM"}]}
{"smiles": "CC(C)(C)CC(=O)N1CCC(c2ccc(C(=O)NCc3ccn4ccnc4c3)s2)C1", "note": "(stereo not shown) [Example 788, 5-[1-(3,3-dimethylbutanoyl)pyrrolidin-3-yl]-N-(imidazo[1,2-a]pyridin-7-ylmethyl)thiophene-2-carboxamide]", "values": [{"measurement": "IC50", "setting": "[3]", "result": 82, "unit": "nM"}, {"measurement": "IC50", "setting": "PC3 cells", "result": 5.44, "unit": "nM"}, {"measurement": "IC50", "setting": "NAMPT", "result": 0.674, "unit": "nM"}]}
{"smiles": "O=C(NCc1ccn2ccnc2c1)Nc1ccc(C2CCN(C(=O)C3COCCO3)C2)cc1", "note": "(stereo not shown) [Example 390]", "values": [{"measurement": "IC50", "setting": "[3]", "result": 133, "unit": "nM"}, {"measurement": "IC50", "setting": "PC3 cells", "result": 80.3, "unit": "nM"}, {"measurement": "IC50", "setting": "NAMPT", "result": 0.445, "unit": "nM"}]}
{"smiles": "COc1cccc(C(=O)N2CCC(c3ccc(C(=O)NCc4ccn5ccnc5c4)cc3)CC2)c1", "note": "[Example 526, N-(imidazo[1,2-a]pyridin-7-ylmethyl)-4-[1-(3-methoxybenzoyl)piperidin-4-yl]benzamide]", "values": [{"measurement": "IC50", "setting": "[3]", "result": 126, "unit": "nM"}, {"measurement": "IC50", "setting": "PC3 cells", "result": 60.3, "unit": "nM"}, {"measurement": "IC50", "setting": "NAMPT", "result": 0.275, "unit": "nM"}]}
{"smiles": "COc1ccccc1C(=O)N1CC(c2ccc(C(=O)NCc3ccn4ccnc4c3)cc2)C1", "note": "[Example 636, N-(imidazo[1,2-a]pyridin-7-ylmethyl)-4-[1-(2-methoxybenzoyl)azetidin-3-yl]benzamide]", "values": [{"measurement": "IC50", "setting": "[3]", "result": 238, "unit": "nM"}, {"measurement": "IC50", "setting": "PC3 cells", "result": 18.4, "unit": "nM"}, {"measurement": "IC50", "setting": "NAMPT", "result": 0.915, "unit": "nM"}]}
{"smiles": "CCC(=O)C(=O)N1CCC(c2ccc(C(=O)NCc3ccn4ccnc4c3)cc2)CC1", "note": "[Example 518, N-(imidazo[1,2-a]pyridin-7-ylmethyl)-4-[1-(2-oxobutanoyl)piperidin-4-yl]benzamide]", "values": [{"measurement": "IC50", "setting": "[3]", "result": 234, "unit": "nM"}, {"measurement": "IC50", "setting": "PC3 cells", "result": 34.8, "unit": "nM"}, {"measurement": "IC50", "setting": "NAMPT", "result": 0.169, "unit": "nM"}]}
